US7816408B2, “Calcium receptor active compounds” (NPS Pharmaceuticals, Inc., priority 2002, dated 2010)

test system: normal male SD rats; assay: Plasma Ca^2+ level of rats after single oral administration; format: in vivo; conditions: rat, mean of six animals, 1 hr after single oral dose 30 μmol/kg; vehicle 10% cyclodextrin (** 1% sodium-CMC)
Protocol: The compound of the present invention was administered to rats so as to examine the effects of the compound on the plasma calcium ion level and serum PTH level. The test was performed by orally administering single dose of the compound of the invention or a control compound to normal male SD rats with six animals in each group.
To the group 1 was administered as a control a 10% cyclodextrin aqueous solution in a dose of 2.5 ml/kg. To the group 2 was administered as a reference (R)-N-(3-(2-chlorophenyl)propyl)-1-(3-methoxyphenyl)ethylamine (KRN568) dissolved in a 10% cyclodextrin aqueous solution in a dose of 30 μmol/kg. To the group 3 was administered the compound of the present invention dissolved in a 10% cyclodextrin aqueous solution in a dose of 30 μmol/kg, provided that 1% sodium-CMC aqueous solution was used in place of 10% cyclodextrin aqueous solution for the compounds marked with ** in Table 2.
Blood of each rat was collected from the tail tip before the administration and 30 minutes and 1, 2, 4, 8 and 24 hours thereafter (or at the time indicated in Table 2), and the plasma Ca^2+ level and serum PTH level were measured. The data of the serum PTH level were statistically processed by the multiple comparison analysis in accordance with Steel's calibration by using the group 1 as the control.

SMILES | Plasma Ca^2+ (mmol/l) 1 hr [mmol/L]
COc1ccc(CN(Cc2ccc(C(F)(F)F)cc2)C(=O)CCN[C@H](C)c2cccc3ccccc23)cc1 [Compound K-2290, N1-(4-methoxybenzyl)-N1-[4-(trifluoromethyl)benzyl)-3-{[(1R)-1-(1-naphthyl)ethyl]amino}propanamide] | 1.428
C[C@@H](NCCCCSc1cc(Cl)c(Cl)cc1Cl)c1cccc2ccccc12 [Compound K-2281, N-[(1R)-1-(1-naphthyl)ethyl]-N-{4-[(2,4,5-trichlorophenyl)thio]butyl}amine] | 1.380

same assay, conditions: rat, mean of six animals, 2 hr after single oral dose 30 μmol/kg; vehicle 10% cyclodextrin (** 1% sodium-CMC)

SMILES | Plasma Ca^2+ (mmol/l) 2 hr [mmol/L]
COc1ccc(CN(Cc2ccc(C(F)(F)F)cc2)C(=O)CCN[C@H](C)c2cccc3ccccc23)cc1 [Compound K-2290, N1-(4-methoxybenzyl)-N1-[4-(trifluoromethyl)benzyl)-3-{[(1R)-1-(1-naphthyl)ethyl]amino}propanamide] | 1.248
C[C@@H](NCCCCSc1cc(Cl)c(Cl)cc1Cl)c1cccc2ccccc12 [Compound K-2281, N-[(1R)-1-(1-naphthyl)ethyl]-N-{4-[(2,4,5-trichlorophenyl)thio]butyl}amine] | 1.245

same assay, conditions: rat, mean of six animals, 4 hr after single oral dose 30 μmol/kg; vehicle 10% cyclodextrin (** 1% sodium-CMC)

SMILES | Plasma Ca^2+ (mmol/l) 4 hr [mmol/L]
COc1ccc(CN(Cc2ccc(C(F)(F)F)cc2)C(=O)CCN[C@H](C)c2cccc3ccccc23)cc1 [Compound K-2290, N1-(4-methoxybenzyl)-N1-[4-(trifluoromethyl)benzyl)-3-{[(1R)-1-(1-naphthyl)ethyl]amino}propanamide] | 1.063
C[C@@H](NCCCCSc1cc(Cl)c(Cl)cc1Cl)c1cccc2ccccc12 [Compound K-2281, N-[(1R)-1-(1-naphthyl)ethyl]-N-{4-[(2,4,5-trichlorophenyl)thio]butyl}amine] | 1.103

same assay, conditions: rat, mean of six animals, 8 hr after single oral dose 30 μmol/kg; vehicle 10% cyclodextrin (** 1% sodium-CMC)

SMILES | Plasma Ca^2+ (mmol/l) 8 hr [mmol/L]
COc1ccc(CN(Cc2ccc(C(F)(F)F)cc2)C(=O)CCN[C@H](C)c2cccc3ccccc23)cc1 [Compound K-2290, N1-(4-methoxybenzyl)-N1-[4-(trifluoromethyl)benzyl)-3-{[(1R)-1-(1-naphthyl)ethyl]amino}propanamide] | 1.055
C[C@@H](NCCCCSc1cc(Cl)c(Cl)cc1Cl)c1cccc2ccccc12 [Compound K-2281, N-[(1R)-1-(1-naphthyl)ethyl]-N-{4-[(2,4,5-trichlorophenyl)thio]butyl}amine] | 0.993

same assay, conditions: rat, mean of six animals, 27 hr after single oral dose 30 μmol/kg; vehicle 10% cyclodextrin (** 1% sodium-CMC)

SMILES | Plasma Ca^2+ (mmol/l) 27 hr (footnote *b, 24 hr)
C[C@@H](NCCCCSc1cc(Cl)c(Cl)cc1Cl)c1cccc2ccccc12 [Compound K-2281, N-[(1R)-1-(1-naphthyl)ethyl]-N-{4-[(2,4,5-trichlorophenyl)thio]butyl}amine] | 1.230*^b mmol/l

target: T1, human calcium receptor (Homo sapiens, UniProt P41180); assay: Activity on calcium receptors: fluo-3 fluorescence in HEK293 cells transfected with human calcium receptor gene; format: cell-based; conditions: HEK293 cells transfected with plasmid pHuPCaR4.0 (human calcium receptor gene), loaded with fluo-3; 1 mM CaCl2, 1 mM MgCl2
T1 construct: expressed in transfected cells; host or cells: HEK293
T1 sequence (P41180 20-1078): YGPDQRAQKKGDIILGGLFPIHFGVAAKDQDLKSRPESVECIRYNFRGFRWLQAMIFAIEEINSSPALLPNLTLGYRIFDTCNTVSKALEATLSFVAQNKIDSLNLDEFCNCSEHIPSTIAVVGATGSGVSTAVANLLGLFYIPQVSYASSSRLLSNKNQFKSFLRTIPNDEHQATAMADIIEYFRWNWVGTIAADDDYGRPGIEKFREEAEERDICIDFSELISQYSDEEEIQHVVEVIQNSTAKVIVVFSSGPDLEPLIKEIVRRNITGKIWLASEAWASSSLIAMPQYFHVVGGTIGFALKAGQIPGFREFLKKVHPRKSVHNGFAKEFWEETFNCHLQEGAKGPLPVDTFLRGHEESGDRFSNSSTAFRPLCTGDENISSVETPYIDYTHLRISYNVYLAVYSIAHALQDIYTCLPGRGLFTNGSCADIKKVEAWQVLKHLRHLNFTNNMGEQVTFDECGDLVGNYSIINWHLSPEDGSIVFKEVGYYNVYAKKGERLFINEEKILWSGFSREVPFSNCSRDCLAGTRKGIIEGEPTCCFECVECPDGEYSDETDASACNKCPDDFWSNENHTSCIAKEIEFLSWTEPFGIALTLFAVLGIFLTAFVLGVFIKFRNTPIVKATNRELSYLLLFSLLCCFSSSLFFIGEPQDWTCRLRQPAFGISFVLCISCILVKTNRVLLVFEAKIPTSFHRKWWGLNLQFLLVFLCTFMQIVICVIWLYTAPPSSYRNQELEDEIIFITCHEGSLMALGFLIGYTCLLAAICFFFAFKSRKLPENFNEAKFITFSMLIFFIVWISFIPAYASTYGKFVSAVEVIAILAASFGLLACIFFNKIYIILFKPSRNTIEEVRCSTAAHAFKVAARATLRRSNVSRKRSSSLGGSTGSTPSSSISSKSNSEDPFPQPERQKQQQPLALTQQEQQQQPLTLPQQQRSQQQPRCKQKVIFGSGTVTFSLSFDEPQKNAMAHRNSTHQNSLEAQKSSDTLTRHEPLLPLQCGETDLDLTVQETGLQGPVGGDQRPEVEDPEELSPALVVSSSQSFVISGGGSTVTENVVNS
Protocol: The activities of the compounds of the present invention on calcium receptors were measured. The measurement was performed in accordance with the method described in Example 4 of Nemeth et al., PCT/US95/13704 (International Publication No. WO96/12697). In brief, HEK293 cells were transfected with a plasmid pHuPCaR4.0 containing a human calcium receptor gene and loaded with fluo-3. The loading was carried out by incubating the cells at 37° C. for 1 hour in Dulbecco's modified Eagle's medium which contained about 5 μM of fluo-3/AM and had been buffered with 20 mM HEPES. Next, the cells were rinsed with Hank's balanced salt solution which contained 1 mM CaCl2 and 1 mM MgCl2 and had been buffered with 20 mM HEPES. Then each test compound was added to the cells and the fluorescence was measured with the use of an excitation wavelength of 485 nm and an emission wavelength of 540 nm.

SMILES | EC50 [nM]
COc1ccc(CN(Cc2ccc(C(F)(F)F)cc2)C(=O)CCN[C@H](C)c2cccc3ccccc23)cc1 [Compound K-2290, N1-(4-methoxybenzyl)-N1-[4-(trifluoromethyl)benzyl)-3-{[(1R)-1-(1-naphthyl)ethyl]amino}propanamide] | 100
COc1cccc(C(C)NCCCOC2c3ccccc3-c3ccccc32)c1 (stereo not shown) [Compound 56] | 280
COc1cccc(C(C)NCCCSc2ccc(C(F)(F)F)cc2)c1 (stereo not shown) [Compound K-2055] | 57
COc1cccc([C@@H](C)NCCCCCSc2ccc(C(F)(F)F)cc2)c1 [Compound K-2057] | 410
COc1cccc(C(C)NCCCCCCSc2ccc([N+](=O)[O-])cc2)c1 (stereo not shown) [Compound K-2035] | 220
CC(NCCCNC(C)c1cccc2ccccc12)c1cccc2ccccc12 (stereo not shown) [Compound 93] | 110
CC(NCCCCSc1ccc(Br)cc1)c1cccc2ccccc12 (stereo not shown) [Compound S-80] | 100
COc1cccc(C(C)NCCCCCSc2ccccc2Cl)c1 (stereo not shown) [Compound 24] | 440
COc1cccc([C@@H](C)NCCCCCCCOc2ccc(Br)cc2)c1 [Compound K-2007] | 470
Cc1cc(C)cc(SCCNC(C)c2cccc3ccccc23)c1 (stereo not shown) [Compound S-64] | 98
CC(NCCCOc1ccc2oc(-c3ccccc3)cc(=O)c2c1)c1cccc2ccccc12 (stereo not shown) [Compound 103] | 300
C[C@@H](NCCC(=O)N(Cc1ccccc1)Cc1cccc(Cl)c1)c1cccc2ccccc12 [Compound K-2252] | 18
COc1cccc(C(C)NCCSc2cccc(C(F)(F)F)c2)c1 (stereo not shown) [Compound K-2008] | 860
COc1cccc(C(C)NCCCSc2cccc(Br)c2)c1 (stereo not shown) [Compound K-2046] | 140
CC(NCCC(=O)N(Cc1ccccc1Cl)Cc1ccccc1Cl)c1cccc2ccccc12 (stereo not shown) [Compound K-2254] | 88
COc1cccc(C(C)NCCCOc2ccc(Cl)cc2)c1 (stereo not shown) [Compound 68] | 650
C[C@@H](NCCC(=O)N(Cc1ccc(C(F)(F)F)cc1)Cc1ccc(C(F)(F)F)cc1)c1cccc2ccccc12 [Compound K-2259, N1,N1-di[4-(trifluoromethyl)benzyl]-3-{[(1R)-1-(1-naphthyl)ethyl]amino}propanamide] | 2.4
COc1cccc(C(C)NCCCSc2ccc(Cl)cc2)c1 (stereo not shown) [Compound 28] | 1600
C[C@@H](NCCCCCCCCCCCCSc1c(F)c(F)c(C(F)(F)F)c(F)c1F)c1cccc2ccccc12 [Compound S-201] | 180
COc1cccc(C(C)NCCCCOc2ccc(Br)cc2)c1 (stereo not shown) [Compound K-2004] | 420
COc1ccc(SCCCCN[C@H](C)c2cccc3ccccc23)cc1 [Compound K-2314] | 290
C[C@@H](NCCC(=O)N(Cc1ccccc1)Cc1ccc2ccccc2c1)c1cccc2ccccc12 [Compound K-2248] | 78
COc1ccc(CN(Cc2ccc(O)cc2)C(=O)CCNC(C)c2cccc3ccccc23)cc1 (stereo not shown) [Compound K-2312] | 80
COc1cccc(C(C)NCCCCCCSc2ccc(C(F)(F)F)cc2)c1 (stereo not shown) [Compound K-2058] | 390
COc1cccc(C(C)NCCCCSc2ccc([N+](=O)[O-])cc2)c1 (stereo not shown) [Compound K-2033] | 350
COc1cccc(C(C)NCCCCCCCSc2ccc(C(F)(F)F)cc2)c1 (stereo not shown) [Compound K-2059] | 270

The next lines start with the values.

EC50 [nM] | SMILES
430 | C[C@@H](NCCCCSc1cc(Cl)c(Cl)cc1Cl)c1cccc2ccccc12 [Compound K-2281, N-[(1R)-1-(1-naphthyl)ethyl]-N-{4-[(2,4,5-trichlorophenyl)thio]butyl}amine]
7200 | COc1cccc(C(C)NCCCOc2ccc3ccccc3c2)c1 (stereo not shown) [Compound 74]
2810 | COc1cccc(C(C)NCCCCCCCSc2ccc(Cl)c(Cl)c2)c1 (stereo not shown) [Compound K-2082]
490 | COc1cccc(C(C)NCCSc2ccccc2Br)c1 (stereo not shown) [Compound K-2015]
770 | COc1cccc(C(C)NCCCCCSc2ccc(Cl)c(Cl)c2)c1 (stereo not shown) [Compound K-2080]
89 | Cc1ccc(COc2cccc(C(C)NCCSc3cc(Cl)ccc3Cl)c2)cc1 (racemic) [Compound K-2268, (±)-N-(1-(3-(4-methylbenzyloxy)phenyl)ethyl)-2-(2′,5′-dichlorophenylthio)ethylamine]
120 | COc1cccc(C(C)NCCCSc2c(Cl)cccc2Cl)c1 (stereo not shown) [Compound K-2084]
509 | COc1cccc(C(C)NCCCOc2ccccc2Cl)c1 (stereo not shown) [Compound 62]
130 | COc1cccc(C(C)NCCCCSc2cccc(Br)c2)c1 (stereo not shown) [Compound K-2047]
830 | COc1cccc(C(C)NCCCCCCSc2cccc(Br)c2)c1 (stereo not shown) [Compound K-2049]
2900 | COc1cccc([C@@H](C)NCCCCOc2ccc(Cl)cc2)c1 [Compound 14]
120 | C[C@@H](NCCCCSc1ccc(C(F)(F)F)cc1)c1cccc2ccccc12 [Compound K-2246, N-[(1R)-1-(1-naphthyl)ethyl]-N-(4-{[4-(trifluoromethyl)phenyl]thio}butyl)amine]
200 | COc1cccc(C(C)NCCCCSc2ccc(Cl)c(Cl)c2)c1 (stereo not shown) [Compound K-2079]
210 | COc1cccc(C(C)NCCCCSc2nc3ccccc3s2)c1 (stereo not shown) [Compound 36]
130 | COc1cccc(C(C)NCCCCSc2c(Cl)cccc2Cl)c1 (stereo not shown) [Compound K-2085]
260 | COc1cccc([C@@H](C)NCCSc2cc(Cl)ccc2Cl)c1 [Compound K-2066]
100 | COc1cccc(C(C)NCCCCCSc2ccc(F)cc2)c1 (stereo not shown) [Compound K-2041]
870 | COc1cccc(C(C)NCCCCCCSc2cccc(C(F)(F)F)c2)c1 (stereo not shown) [Compound K-2012]
3200 | COc1cccc(C(C)NCCCSc2ccccc2Cl)c1 (stereo not shown) [Compound 20]
96 | CC(NCCSc1cc(Cl)ccc1Cl)c1cccc(OCCCCCCCl)c1 (racemic) [Compound K-2260, (±)-N-(1-(3-(6-chlorohexyloxy)phenyl)ethyl)-2-(2′,5′-dichlorophenylthio)ethylamine]
